The record followed here is patent US8680159B2, “Bradykinin 1 receptor modulating compounds” (Gruenenthal GmbH, priority 2010, dated 2014).

The target in the assay is T1, human B1R receptor (CHO K1 cells stably transfected with the human B1R gene) (Homo sapiens, UniProt P46663).
T1 construct: expressed in transfected cells; host or cells: CHO K1 cells (Chinese hamster ovary), stably transfected
T1 sequence (P46663 1-353): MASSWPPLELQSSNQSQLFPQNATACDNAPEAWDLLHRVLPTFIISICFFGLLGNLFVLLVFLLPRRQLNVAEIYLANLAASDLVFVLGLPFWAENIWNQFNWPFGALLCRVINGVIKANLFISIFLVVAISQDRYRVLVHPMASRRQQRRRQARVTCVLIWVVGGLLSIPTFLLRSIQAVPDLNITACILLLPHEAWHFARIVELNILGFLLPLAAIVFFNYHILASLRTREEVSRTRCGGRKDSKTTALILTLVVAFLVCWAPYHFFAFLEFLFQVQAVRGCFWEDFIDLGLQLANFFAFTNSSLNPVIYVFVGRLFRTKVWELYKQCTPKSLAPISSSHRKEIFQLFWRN
In words: Functional study on the bradykinin receptor 1 (B1R), Ca2+ fluorescence (Fluo-4) FLIPR/Novostar assay, hB1R cells. The conditions noted are these: CHO-K1, read-out: % Inhibition (h-B1R) at 10 μM. The class given is cell-based. In outline:
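Stably transfected CHO K1 cells carrying human or rat B1R were Fluo-4 loaded and Ca2+ fluorescence read by FLIPR or Novostar. Compounds were added first at 10 μM for % activation, then the EC80 agonist was applied after 6-20 min (human: Lys-Des-Arg9-bradykinin; rat: Des-Arg9-bradykinin). % inhibition is relative to maximum achievable inhibition, and IC50 comes from concentration series.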
Take `O=C(NCCC1CCN(c2ccncc2)CC1)c1ccc2c(c1)C(NC(=O)C1CCCCC1)CC2` (stereo not shown) [CC_H-116, 3-(Cyclohexanecarbonylamino)-N-[2-(1-pyridin-4-yl-piperidin-4-yl)-ethyl]-2,3-dihydro-1H-indene-5-carboxylic acid amide]: the inhibition at 10 µM turned out to be 92%.

For `Cc1cc(N2CCC(N(C)C(=O)c3ccc4c(c3)C(NC(=O)c3cncnc3)CC4)CC2)cc(C)n1` (stereo not shown) [CC_H-118, N-[6-[[1-(2,6-Dimethyl-pyridin-4-yl)-piperidin-4-yl]-methyl-carbamoyl]-2,3-dihydro-1H-inden-1-yl]-pyrimidine-5-carboxylic acid amide], the inhibition at 10 µM came to 89%. In the case of `Cc1cc(N2CCC(N(C)C(=O)c3ccc4c(c3)C(NC(=O)c3cc(F)ccc3Cl)CC4)CC2)cc(C)n1` (stereo not shown) [CC_H-119, 3-[(2-Chloro-5-fluoro-benzoyl)amino]-N-[1-(2,6-dimethyl-pyridin-4-yl)-piperidin-4-yl]-N-methyl-2,3-dihydro-1H-indene-5-carboxylic acid amide], the inhibition at 10 µM turned out to be 100%. Turning to `Cc1cc(N2CCC(N(C)C(=O)c3ccc4c(c3)C(NC(=O)CCC3CCCC3)CC4)CC2)cc(C)n1` (stereo not shown) [CC_H-120, 3-(3-Cyclopentyl-propanoylamino)-N-[1-(2,6-dimethyl-pyridin-4-yl)-piperidin-4-yl]-N-methyl-2,3-dihydro-1H-indene-5-carboxylic acid amide], the inhibition at 10 µM is 100%. With `Cc1cc(N2CCC(N(C)C(=O)c3ccc4c(c3)C(NS(=O)(=O)Cc3ccccc3C(F)(F)F)CC4)CC2)cc(C)n1` (stereo not shown) [CC_H-121, N-[1-(2,6-Dimethyl-pyridin-4-yl)-piperidin-4-yl]-N-methyl-3-[[[2-(trifluoromethyl)-phenyl]-methylsulfonyl]amino]-2,3-dihydro-1H-indene-5-carboxylic acid amide], the inhibition at 10 µM stood at 100%. For the compound `Cc1cc(N2CCC(N(C)C(=O)c3ccc4c(c3)C(NC(=O)CC(C)C)CC4)CC2)cc(C)n1` (stereo not shown) [CC_H-122, N-[1-(2,6-Dimethyl-pyridin-4-yl)-piperidin-4-yl]-N-methyl-3-(3-methyl-butanoylamino)-2,3-dihydro-1H-indene-5-carboxylic acid amide], the inhibition at 10 µM amounted to 100%. The value for `Cc1cc(N2CCC(N(C)C(=O)c3ccc4c(c3)C(NC(=O)C3CCCCC3)CC4)CC2)cc(C)n1` (stereo not shown) [CC_H-123, 3-(Cyclohexanecarbonylamino)-N-[1-(2,6-dimethyl-pyridin-4-yl)-piperidin-4-yl]-N-methyl-2,3-dihydro-1H-indene-5-carboxylic acid amide] was 100%; that for `CN(C(=O)c1ccc2c(c1)C(NC(=O)c1cncnc1)CCO2)C1CCN(c2ccncc2)CC1` (stereo not shown) [CC_H-124, N-[6-[Methyl-(1-pyridin-4-yl-piperidin-4-yl)-carbamoyl]-3,4-dihydro-2H-chromen-4-yl]-pyrimidine-5-carboxylic acid amide] was 68%; that for `CN(C(=O)c1ccc2c(c1)C(NS(=O)(=O)Cc1ccccc1C(F)(F)F)CCC2)C1CCN(c2ccncc2)CC1` (stereo not shown) [CC_H-125, N-Methyl-N-(1-pyridin-4-yl-piperidin-4-yl)-8-[[[2-(trifluoromethyl)-phenyl]-methylsulfonyl]amino]-5,6,7,8-tetrahydro-naphthalene-2-carboxylic acid amide] was 100%. For the compound `CN(C(=O)NC1CCc2cc(C(=O)N(C)C3CCN(c4ccncc4)CC3)ccc21)c1ccccc1Cl` (stereo not shown) [CC_H-126, 1-[[(2-Chlorophenyl)-methyl-carbamoyl]amino]-N-methyl-N-(1-pyridin-4-yl-piperidin-4-yl)-2,3-dihydro-1H-indene-5-carboxylic acid amide], the inhibition at 10 µM came out at 100%.

`CN(C(=O)c1ccc2c(c1)CCC2NC(=O)c1c(Cl)cccc1C(F)(F)F)C1CCN(c2ccncc2)CC1` (stereo not shown) [CC_H-127, 1-[[2-Chloro-6-(trifluoromethyl)-benzoyl]amino]-N-methyl-N-(1-pyridin-4-yl-piperidin-4-yl)-2,3-dihydro-1H-indene-5-carboxylic acid amide]: the inhibition at 10 µM turned out to be 95%. For the compound `O=C(NCCC1CCN(c2ccncc2)CC1)c1ccc2c(c1)C(NS(=O)(=O)Cc1ccccc1C(F)(F)F)CC2` (stereo not shown) [CC_H-128, N-[2-(1-Pyridin-4-yl-piperidin-4-yl)-ethyl]-3-[[[2-(trifluoromethyl)-phenyl]-methylsulfonyl]amino]-2,3-dihydro-1H-indene-5-carboxylic acid amide], the inhibition at 10 µM is 99%. With `Cc1cc(N2CCC(N(C)C(=O)c3ccc4c(c3)C(N(C)S(=O)(=O)Cc3ccccc3C(F)(F)F)CC4)CC2)cc(C)n1` (stereo not shown) [CC_H-129, N-[1-(2,6-Dimethyl-pyridin-4-yl)-piperidin-4-yl]-N-methyl-3-[methyl-[[2-(trifluoromethyl)-phenyl]-methylsulfonyl]-amino]-2,3-dihydro-1H-indene-5-carboxylic acid amide], the inhibition at 10 µM was 100%. Regarding `CN(C(=O)c1ccc2c(c1)C(NC(=O)c1cncnc1)CC2)C1CCN(c2ccc3cnccc3c2)CC1` (stereo not shown) [CC_H-130, N-[6-[(1-Isoquinolin-6-yl-piperidin-4-yl)-methyl-carbamoyl]-2,3-dihydro-1H-inden-1-yl]-pyrimidine-5-carboxylic acid amide], the inhibition at 10 µM came out at 81%. The value for `Cc1cc(N2CCC(N(C)C(=O)c3ccc4c(c3)C(NC(=O)C(C)(C)c3ccccc3Cl)CC4)CC2)cc(C)n1` (stereo not shown) [CC_H-131, 3-[[2-(2-Chlorophenyl)-2-methyl-propanoyl]amino]-N-[1-(2,6-dimethyl-pyridin-4-yl)-piperidin-4-yl]-N-methyl-2,3-dihydro-1H-indene-5-carboxylic acid amide] was 99%; that for `CC(C)CC(=O)NC1CCc2ccc(C(=O)NCCC3CCN(c4ccncc4)CC3)cc21` (stereo not shown) [CC_H-132, 3-(3-Methyl-butanoylamino)-N-[2-(1-pyridin-4-yl-piperidin-4-yl)-ethyl]-2,3-dihydro-1H-indene-5-carboxylic acid amide] was 99%; that for `Cc1cccc(C)c1C(=O)NC1CCc2ccc(C(=O)N(C)C3CCN(c4ccc5cnccc5c4)CC3)cc21` (stereo not shown) [CC_H-133, 3-[(2,6-Dimethyl-benzoyl)amino]-N-(1-isoquinolin-6-yl-piperidin-4-yl)-N-methyl-2,3-dihydro-1H-indene-5-carboxylic acid amide] was 90%. Regarding `Cc1cc(N2CCC(N(C)C(=O)c3ccc4c(c3)C(N(C)S(=O)(=O)c3c(Cl)cccc3C(F)(F)F)CC4)CC2)cc(C)n1` (stereo not shown) [CC_H-134, 3-[[[2-Chloro-6-(trifluoromethyl)-phenyl]sulfonyl]-methyl-amino]-N-[1-(2,6-dimethyl-pyridin-4-yl)-piperidin-4-yl]-N-methyl-2,3-dihydro-1H-indene-5-carboxylic acid amide], the inhibition at 10 µM is 100%. With `CC(C)CC(=O)NC1CCCc2ccc(C(=O)N(C)C3CCN(c4ccncc4)CC3)cc21` (stereo not shown) [CC_H-135, N-Methyl-8-(3-methyl-butanoylamino)-N-(1-pyridin-4-yl-piperidin-4-yl)-5,6,7,8-tetrahydro-naphthalene-2-carboxylic acid amide], the inhibition at 10 µM came out at 100%. Take `O=C(NCCC1CCN(c2ccncc2)CC1)c1ccc2c(c1)C(NC(=O)c1c(Cl)cccc1C(F)(F)F)CC2` (stereo not shown) [CC_H-136, 3-[[2-Chloro-6-(trifluoromethyl)-benzoyl]amino]-N-[2-(1-pyridin-4-yl-piperidin-4-yl)-ethyl]-2,3-dihydro-1H-indene-5-carboxylic acid amide]: the inhibition at 10 µM is 100%. The value for `CN(C(=O)c1ccc2c(c1)C(NC(=O)c1c(Cl)cccc1C(F)(F)F)CC2)C1CCN(c2ccncc2)CC1` (stereo not shown) [CC_H-137, 3-[[2-Chloro-6-(trifluoromethyl)-benzoyl]amino]-N-methyl-N-(1-pyridin-4-yl-piperidin-4-yl)-2,3-dihydro-1H-indene-5-carboxylic acid amide] was 96%; that for `Cc1cccc(C)c1C(=O)NC1CCc2ccc(C(=O)N(C)C3CCN(c4ccncc4)CC3)cc21` (stereo not shown) [CC_H-138, 3-[(2,6-Dimethyl-benzoyl)amino]-N-methyl-N-(1-pyridin-4-yl-piperidin-4-yl)-2,3-dihydro-1H-indene-5-carboxylic acid amide] was 98%. Regarding `CN(C(=O)c1ccc2c(c1)C(NC(=O)C(C)(C)c1ccccc1Cl)CC2)C1CCN(c2ccncc2)CC1` (stereo not shown) [CC_H-139, 3-[[2-(2-Chlorophenyl)-2-methyl-propanoyl]amino]-N-methyl-N-(1-pyridin-4-yl-piperidin-4-yl)-2,3-dihydro-1H-indene-5-carboxylic acid amide], the inhibition at 10 µM was determined as 98%.

`CN(C(=O)c1ccc2c(c1)C(NC(=O)C1CCCCC1)CC2)C1CCN(c2ccncc2)CC1` (stereo not shown) [CC_H-140, 3-(Cyclohexanecarbonylamino)-N-methyl-N-(1-pyridin-4-yl-piperidin-4-yl)-2,3-dihydro-1H-indene-5-carboxylic acid amide]: the inhibition at 10 µM came to 100%. With `CN(C(=O)c1ccc2c(c1)C(NS(=O)(=O)Cc1ccccc1C(F)(F)F)CC2)C1CCN(c2ccncc2)CC1` (stereo not shown) [CC_H-141, N-Methyl-N-(1-pyridin-4-yl-piperidin-4-yl)-3-[[[2-(trifluoromethyl)-phenyl]-methylsulfonyl]amino]-2,3-dihydro-1H-indene-5-carboxylic acid amide], the inhibition at 10 µM came out at 100%.

As a reminder, the inhibition is the drop in the measured response relative to a control, in per cent.
